From PubChem BioAssay AID1963860 (Molecular Pharmacology Branch, DTP, NCI, 2024)

System: CN0375-F725-PDC KRAS spheroid viability
Assay: Anticancer human tumor CN0375-F725-PDC patient-derived colon carcinoma cell line growth inhibition [KRAS2]
Conditions: spheroids with HUVEC and MSC; for IC50: curve of first compound; for viability, T/C: stronger effect = lower value; active means viability on the fitted dose curve at most 10% of control; inactive means the rest
How it was run: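 KRAS-mutant tumor cells were grown as spheroids with HUVEC endothelial cells and human MSCs as stroma. Targeted agents were tested alone and with KRAS pathway inhibitors. Doses started at or near clinical Cmax, or 10 microM, descending half-log.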

[1] = second compound 0.1 µM, first compound 0.0316 µM
[2] = second compound 0.316 µM, first compound 0.0316 µM
[3] = second compound 1 µM, first compound 0.0316 µM
[4] = second compound 3.16 µM, first compound 0.0316 µM
[5] = second compound 10 µM, first compound 0.0316 µM
[6] = second compound 0.1 µM, first compound 0.1 µM
[7] = second compound 0.1 µM, first compound 0.316 µM
[8] = second compound 0.1 µM, first compound 1 µM
[9] = second compound 0.1 µM, first compound 3.16 µM
[10] = second compound 0.1 µM, first compound 10 µM
[11] = second compound 0.316 µM, first compound 0.1 µM
[12] = second compound 0.316 µM, first compound 0.316 µM
[13] = second compound 0.316 µM, first compound 1 µM
[14] = second compound 0.316 µM, first compound 3.16 µM
[15] = second compound 0.316 µM, first compound 10 µM
[16] = second compound 1 µM, first compound 0.1 µM
[17] = second compound 1 µM, first compound 0.316 µM
[18] = second compound 1 µM, first compound 1 µM
[19] = second compound 1 µM, first compound 3.16 µM
[20] = second compound 1 µM, first compound 10 µM
[21] = second compound 3.16 µM, first compound 0.1 µM
[22] = second compound 3.16 µM, first compound 0.316 µM
[23] = second compound 3.16 µM, first compound 1 µM
[24] = second compound 3.16 µM, first compound 3.16 µM
[25] = second compound 3.16 µM, first compound 10 µM
[26] = second compound 10 µM, first compound 0.1 µM
[27] = second compound 10 µM, first compound 0.316 µM
[28] = second compound 10 µM, first compound 1 µM
[29] = second compound 10 µM, first compound 3.16 µM
[30] = second compound 10 µM, first compound 10 µM
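Further: spheroids exposed to agents for 7 days.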

CC(=O)Nc1cccc(-n2c(=O)n(C3CC3)c(=O)c3c(Nc4ccc(I)cc4F)n(C)c(=O)c(C)c32)c1 + CNCc1ccccc1-c1csc(C(C)Nc2nc(C)nc3cc(OC)c(OC)cc23)c1
1.9 nM: IC50 (second compound 0.316 µM)
< 0.1 nM: IC50 (second compound 1 µM) | IC50 (second compound 3.16 µM) | IC50 (second compound 10 µM)
inactive: viability, T/C (second compound 0.1 µM, first compound 0.0001 µM) 89.5% | viability, T/C (second compound 0.1 µM, first compound 0.000316 µM) 78% | viability, T/C (second compound 0.1 µM, first compound 0.001 µM) 59.4% | viability, T/C (second compound 0.1 µM, first compound 0.00316 µM) 51% | viability, T/C (second compound 0.1 µM, first compound 0.01 µM) 42.3% | viability, T/C [1] 30.2% | viability, T/C (second compound 0.316 µM, first compound 0.0001 µM) 83.9% | viability, T/C (second compound 0.316 µM, first compound 0.000316 µM) 70.9% | viability, T/C (second compound 0.316 µM, first compound 0.001 µM) 56.4% | viability, T/C (second compound 0.316 µM, first compound 0.00316 µM) 42.7% | viability, T/C (second compound 0.316 µM, first compound 0.01 µM) 37.9% | viability, T/C [2] 26.6% | viability, T/C (second compound 1 µM, first compound 0.0001 µM) 45.4% | viability, T/C (second compound 1 µM, first compound 0.000316 µM) 36.8% | viability, T/C (second compound 1 µM, first compound 0.001 µM) 13.3% | viability, T/C (second compound 1 µM, first compound 0.00316 µM) 18.2%
3.38 nM: IC50 (second compound 0.1 µM)
active: viability, T/C (second compound 1 µM, first compound 0.01 µM) 11.4% | viability, T/C [3] 3.9% | viability, T/C (second compound 3.16 µM, first compound 0.0001 µM) 1.63% | viability, T/C (second compound 3.16 µM, first compound 0.000316 µM) 0.39% | viability, T/C (second compound 3.16 µM, first compound 0.001 µM) 0.3% | viability, T/C (second compound 3.16 µM, first compound 0.00316 µM) 0.37% | viability, T/C (second compound 3.16 µM, first compound 0.01 µM) 0.23% | viability, T/C [4] 0.73% | viability, T/C (second compound 10 µM, first compound 0.0001 µM) 0.67% | viability, T/C (second compound 10 µM, first compound 0.000316 µM) 0.27% | viability, T/C (second compound 10 µM, first compound 0.001 µM) 0.26% | viability, T/C (second compound 10 µM, first compound 0.00316 µM) 0.37% | viability, T/C (second compound 10 µM, first compound 0.01 µM) 0.36% | viability, T/C [5] 0.25%

COC(=O)c1ccc2c(C(=Nc3ccc(N(C)C(=O)CN4CCN(C)CC4)cc3)c3ccccc3)c(O)[nH]c2c1 + CNCc1ccccc1-c1csc(C(C)Nc2nc(C)nc3cc(OC)c(OC)cc23)c1
active: viability, T/C [10] 0.35% | viability, T/C [15] 0.2% | viability, T/C [20] 0.24% | viability, T/C [4] 1% | viability, T/C [21] 0.73% | viability, T/C [22] 0.68% | viability, T/C [23] 1.02% | viability, T/C [24] 0.63% | viability, T/C [25] 0.32% | viability, T/C [5] 0.63% | viability, T/C [26] 0.51% | viability, T/C [27] 0.5% | viability, T/C [28] 0.37% | viability, T/C [29] 0.61% | viability, T/C [30] 0.3%
3840 nM: IC50 (second compound 1 µM)
3220 nM: IC50 (second compound 0.1 µM)
1570 nM: IC50 (second compound 0.316 µM)
inactive: viability, T/C [1] 95.2% | viability, T/C [6] 95.4% | viability, T/C [7] 86.6% | viability, T/C [8] 83.5% | viability, T/C [9] 50.3% | viability, T/C [2] 94.7% | viability, T/C [11] 88% | viability, T/C [12] 84.3% | viability, T/C [13] 73.1% | viability, T/C [14] 14.9% | viability, T/C [3] 84.7% | viability, T/C [16] 87.9% | viability, T/C [17] 77.3% | viability, T/C [18] 68% | viability, T/C [19] 65%
< 31.6 nM: IC50 (second compound 3.16 µM) | IC50 (second compound 10 µM)

O=C(c1cc(Cc2n[nH]c(=O)c3ccccc23)ccc1F)N1CCN(C(=O)C2CC2)CC1 + CNCc1ccccc1-c1csc(C(C)Nc2nc(C)nc3cc(OC)c(OC)cc23)c1
active: viability, T/C [4] 0.68% | viability, T/C [21] 0.36% | viability, T/C [22] 0.74% | viability, T/C [23] 0.33% | viability, T/C [24] 0.37% | viability, T/C [25] 0.55% | viability, T/C [5] 0.64% | viability, T/C [26] 0.22% | viability, T/C [27] 0.57% | viability, T/C [28] 0.37% | viability, T/C [29] 0.19% | viability, T/C [30] 0.33%
inactive: viability, T/C [1] 112% | viability, T/C [6] 109% | viability, T/C [7] 100% | viability, T/C [8] 107% | viability, T/C [9] 104% | viability, T/C [10] 95.5% | viability, T/C [2] 108% | viability, T/C [11] 105% | viability, T/C [12] 96.8% | viability, T/C [13] 92.3% | viability, T/C [14] 96.9% | viability, T/C [15] 87.7% | viability, T/C [3] 96.9% | viability, T/C [16] 94.8% | viability, T/C [17] 89.7% | viability, T/C [18] 81% | viability, T/C [19] 87.8% | viability, T/C [20] 79.6%
> 10000 nM: IC50 (second compound 0.1 µM) | IC50 (second compound 0.316 µM) | IC50 (second compound 1 µM)
< 31.6 nM: IC50 (second compound 3.16 µM) | IC50 (second compound 10 µM)
